# PMC9814530, “Rapid de novo discovery of peptidomimetic affinity reagents for human angiotensin converting enzyme 2” (Communications Chemistry, 2022)
# Entries after “also recorded” stand apart in the source; their conditions may differ. Where a SMILES comes first, the peptide text is derived from it. [ ]: non-standard residue; d: D form. Phe(3,4-F2) = N[C@@H](Cc1ccc(F)c(F)c1)C(=O)O; Ala(4-thiazolyl) = N[C@@H](Cc1cscn1)C(=O)O; Phe(4-NH2) = Nc1ccc(C[C@H](N)C(=O)O)cc1; Met(O2) = CS(=O)(=O)CC[C@H](N)C(=O)O; Ala(cPr) = N[C@@H](CC1CC1)C(=O)O; Cha = N[C@@H](CC1CCCCC1)C(=O)O; β3hS = N[C@@H](CO)CC(=O)O; Orn = NCCC[C@H](N)C(=O)O
# Tests used:
# 12ca5 = test: BLI binding to an unrelated (off-target) protein
# Procedure: Peptide binding validation was carried out using the ForteBio Octet RED96 system. The chamber temperature was kept constant at 30 °C with a plate agitation speed at 1000 rpm. Briefly, streptavidin (SA)-coated biosensor tips were dipped into 200 μL of 1.0–2.0 μM biotinylated peptide solution (in a kinetic buffer (K.B.): 1 × PBS with 0.1% BSA and 0.02% Tween-20) for peptides immobilization. Once loaded with peptides, the tips were then moved into solutions containing various concentrations (1000, 500, 250, 125, and 62.5 nM) of recombinant ACE2 protein (purchased from Sino Biological, Catalog number 10108-H08H) in the K.B. to obtain the association curve. After the 180 s association step, the tips were moved back into the K.B. to obtain the dissociation curve. Buffer-only and protein-only conditions (concentration at 1000 nM) were used as references for background subtraction. The association and dissociation curves were fitted with the ForteBio Biosystems Data Analysis Software under 5 experimental conditions (n = 5, global fitting algorithm, binding model 1:1) to calculate the apparent dissociation constant (KD). […]
# 4.4 The binding of ABP noncanonical peptides to an unrelated protein
# N6, and N8 to an unrelated protein, 12ca5, measured by BLI at concentration
# (§1) (1 picture or pasted object on this page, not shown here)
# ACE2 [1] = molecular target: T1, ACE2 (Homo sapiens, UniProt Q9BYF1); test: ACE2 pulldown from human serum (SDS-PAGE); assay type: binding; settings: biotinylated peptide on streptavidin magnetic beads, ACE2 in 5% normal human serum, 1.0 h 4 °C, 6 M urea elution
# Procedure: After removing the supernatant and washing off the unbound fraction, the bound material was eluted with a high concentration of urea and analyzed using the sodium dodecyl sulfate–polyacrylamide gel electrophoresis (SDS-PAGE). […] Bound ACE2 was eluted for subsequent analysis. b The SDS-PAGE image with samples showing from left to right lanes: (1) molecular weight standard; (2) purified ACE2 protein (1.5 µg) as a loading control; (3) normal human serum as a control; (4) normal human serum mixed with ACE2 (1.5 µg); (5) elution of the bound fraction from the magnetic beads. NHS, Normal Human Serum (5%). Following a previous protocol, streptavidin-coated magnetic beads (100 µL, at 10 mg/mL) were pre-washed with blocking buffer (1 × PBS with 0.05% Tween-20, pH 7.4) and captured on a magnetic separation rack. The beads were then re-suspended in 1.0 mL of the same blocking buffer. […] After 30 min of incubation at 4 °C, the supernatant was removed and the beads were washed with 1 × PBS (3 × 1.0 mL) before incubation with the protein mixture. Soluble ACE2 (5 µL, 0.62 mg/mL) was mixed with 50 µL normal human serum in 1 × PBS (pH 7.4) to a final volume of 1.0 mL. The magnetic beads displaying immobilized ABP N1 were then added into the protein complex. […]
# ACE2 [2] = molecular target: T1, ACE2; test: ELISA detection of ACE2 coated from a mixture with normal human serum; assay type: binding; settings: plate coated with normal human serum and exogenous ACE2; biotinylated peptide 100 nM; streptavidin-HRP, TMB, A450
# Procedure: (§2) However, we observed a decreased detection sensitivity presumably due to the decreased amount of ACE2 being immobilized on the plate with many other serum proteins present. […] The plate was incubated with ABP N1 or control peptide, followed by streptavidin-HRP and TMB substrate. Absorbance was measured at 450 nm. The experiment was performed in technical triplicates (n = 3). Each data point, the mean signal as a bar, and error bars from experimental standard deviation, and statistical significance calculated with the unpaired Student’s t-test are shown. A serial dilution of soluble ACE2 was coated onto an ELISA plate (96-well format) overnight at 4 °C. The next day, the plate was blocked with 5% BSA in 1 × PBS supplement with 0.05% Tween-20 (PBST, pH 7.4) for 2–3 h at room temperature. […] Control groups are biotinylated peptide ABP N8 and PBST alone. The supernatant was then removed, and the wells were washed with PBST (3× 200 µL). Streptavidin-HRP conjugate in PBST (0.25 µg/mL, 100 µL) was added to each well and incubated for 30 min at room temperature. The plate was PBST-washed again (3 × 200 µL) before color development with 100 µL 1-Step™ Ultra TMB-ELISA Substrate Solution (Thermo Fisher, Catalog number 34028). After 10 min, the reaction was quenched with 2.0 M sulfuric acid (100 µL). Finally, the absorbance at 450 nm was measured on a microplate reader (BioTek) for all treated wells. […]
# ACE2 [3] = molecular target: T1, ACE2; test: BLI binding competition of known ACE2 binders (AngII, MLN-4760) on the ABP-ACE2 interaction; design: Soluble ACE2 (5 µL, 0.62 mg/mL) was mixed with 50 µL normal human serum; settings: immobilized biotinylated peptide
# ACE2 [4] = molecular target: T1, ACE2; test: Bio-layer interferometry (BLI) binding of immobilized biotinylated peptides to ACE2; settings: 500 nM of ACE2
# Procedure: Peptide binding validation was carried out using the ForteBio Octet RED96 system. The chamber temperature was kept constant at 30 °C with a plate agitation speed at 1000 rpm. Briefly, streptavidin (SA)-coated biosensor tips were dipped into 200 μL of 1.0–2.0 μM biotinylated peptide solution (in a kinetic buffer (K.B.): 1 × PBS with 0.1% BSA and 0.02% Tween-20) for peptides immobilization. Once loaded with peptides, the tips were then moved into solutions containing various concentrations (1000, 500, 250, 125, and 62.5 nM) of recombinant ACE2 protein (purchased from Sino Biological, Catalog number 10108-H08H) in the K.B. to obtain the association curve. After the 180 s association step, the tips were moved back into the K.B. to obtain the dissociation curve. Buffer-only and protein-only conditions (concentration at 1000 nM) were used as references for background subtraction. The association and dissociation curves were fitted with the ForteBio Biosystems Data Analysis Software under 5 experimental conditions (n = 5, global fitting algorithm, binding model 1:1) to calculate the apparent dissociation constant (KD).
# Supplementary Note 4: Binding affinity measurements
# 4.1 BLI raw binding data of noncanonical peptides […]
# affinity was reported using the kinetic fitting results ( KD is calculated by divide the […]
# off rate by on rate). […] The ACE2
# as §1
# 4.2 BLI raw binding data of canonical peptides
# Supplementary Fig. 20. The BLI binding curve fitting (red lines) of ABP C1-C4 and ABP C7-C9 from Library 1 AS-MS against ACE2.
# ACE2 concentration was 250 nM.
# ACE2 [5] = molecular target: T1, ACE2; test: ELISA detection of ACE2 coated from 1 x PBS; assay type: binding; settings: ACE2 in 1 x PBS 10 pM-100 nM coated; biotinylated peptide 100 nM; streptavidin-HRP, TMB, A450
# Procedure: as §2
# T1 sequence (Q9BYF1 18-740 limits assumed): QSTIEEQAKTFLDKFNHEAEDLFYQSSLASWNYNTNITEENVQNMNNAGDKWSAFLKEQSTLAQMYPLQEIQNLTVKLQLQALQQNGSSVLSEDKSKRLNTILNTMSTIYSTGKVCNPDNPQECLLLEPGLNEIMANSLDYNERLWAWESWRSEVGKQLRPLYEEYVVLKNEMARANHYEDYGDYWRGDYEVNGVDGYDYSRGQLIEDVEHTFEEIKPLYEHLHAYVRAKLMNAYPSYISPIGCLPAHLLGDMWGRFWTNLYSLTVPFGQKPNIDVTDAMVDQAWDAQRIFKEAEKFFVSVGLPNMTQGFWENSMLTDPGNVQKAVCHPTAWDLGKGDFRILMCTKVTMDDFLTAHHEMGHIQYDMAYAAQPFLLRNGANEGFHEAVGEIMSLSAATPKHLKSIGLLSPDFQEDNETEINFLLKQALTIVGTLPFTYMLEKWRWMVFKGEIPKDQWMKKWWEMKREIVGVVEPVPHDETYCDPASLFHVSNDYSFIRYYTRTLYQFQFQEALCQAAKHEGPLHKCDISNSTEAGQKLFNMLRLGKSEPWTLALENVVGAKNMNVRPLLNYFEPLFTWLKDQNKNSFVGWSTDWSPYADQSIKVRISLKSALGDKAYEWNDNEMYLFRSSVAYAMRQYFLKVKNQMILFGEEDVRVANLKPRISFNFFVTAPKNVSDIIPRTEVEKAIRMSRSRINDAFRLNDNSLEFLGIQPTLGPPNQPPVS
structure (smiles),measurement,setting,value
"CS(=O)(=O)CC[C@H](NC(=O)[C@H](CC1CCCCC1)NC(=O)[C@H](Cc1cscn1)NC(=O)C[C@H](CO)NC(=O)[C@H](CCCN)NC(=O)[C@H](CCC(N)=O)NC(=O)[C@H](CCCN)NC(=O)[C@H](Cc1ccc(F)c(F)c1)NC(=O)[C@H](Cc1cscn1)NC(=O)[C@@H](N)CC1CC1)C(=O)NCC(=O)N[C@@H](Cc1ccc(N)cc1)C(=O)N[C@@H](CCCCN)C(N)=O [ABP N1] (H-[Ala(cPr)][Ala(4-thiazolyl)][Phe(3,4-F2)][Orn]Q[Orn][β3hS][Ala(4-thiazolyl)][Cha][Met(O2)]G[Phe(4-NH2)]K-NH2)",higher signal for ACE2 than for 12ca5,"12ca5; 500 nM ACE2 versus 500 nM 12ca5, BLI",~ 5 fold
same,BLI response signal,12ca5; 500 nM of the off-target protein (12ca5),0.25 nm
same,binding to unrelated protein 12ca5 (in words),"12ca5; BLI, 12ca5 at 500 nM",minimal binding; also recorded: No apparent binding
same,pull-down of ACE2 from human serum,ACE2 [1],selective enrichment of ACE2 protein
same,ELISA detection of ACE2 in human serum (in words),ACE2 [2],dose-dependent ACE2 detection
same,inhibition of ABP binding to ACE2 by AngII,ACE2 [3]; 500 nM ACE2 + 5 uM AngII (10-fold excess),not inhibited
same,inhibition of ABP binding to ACE2 by MLN-4760,ACE2 [3]; 500 nM ACE2 + 5 uM MLN-4760 (10-fold excess),partially inhibited
same,BLI response signal,ACE2 [4],~ 1.3 nm
same,ELISA detection of ACE2 (in words),ACE2 [5],picomolar concentration of ACE2 was detected
